Laboratory results taken from article PMC9995496, “A screen for MeCP2-TBL1 interaction inhibitors using a luminescence-based assay” (Scientific Reports, 2023).
Where a name gives a salt, the structure may show the parent alone.

These compounds were tested on PRKACA-PRKAR2A interaction (SmBiT-PRKACA / LgBiT-PRKAR2A), protein kinase A. Conditions: 0.5 h, 20 µM; inhibitor.
Parameters: NanoLuc complementation counter-screen in cell extract, PRKACA with PRKAR2A, loss of luminescence, detects NanoLuc interference

| SMILES | Inh (PKA) |
| --- | --- |
| CC(C(=O)O)C(=O)O [UM0142795:01, Methylmalonate] | -2.942 |

Same assay, conditions: counter-screen for NanoLuc interference, 0.5 h, 20 µM, inhibitor, Inh (PKA)

| Inh (PKA) [%] | SMILES |
| --- | --- |
| 18.36 | O=C(Nc1ccc2[nH]nc(-c3ccncc3)c2c1)[C@@H]1CCN(CC(=O)N2CCN(c3ccc(-c4ncccn4)cc3)CC2)C1 [UM0142677:01, SCH772984 HCl] |
| 21.22 | CN1CCN(c2ccc3nc(-c4c(N)c5c(F)cccc5[nH]c4=O)[nH]c3c2)CC1 [UM0142698:01, Dovitinib (TKI258) Lactate] |

Same assay, conditions: counter-screen for NanoLuc interference; 0.5 h, 20 µM; inhibitor

| SMILES | Inh (PKA) [%] |
| --- | --- |
| CS(=O)(=O)c1ccc(-c2nnc(/C=C/c3nnc(-c4ccc(C#N)cc4)o3)n2-c2ccccc2Cl)nc1 [UM0142653:01, G007-LK] | 3.502 |
| Cc1cc(C)c(CNC(=O)c2cc(-c3ccc(N4CCN(C)CC4)nc3)cc3c2c(C)cn3C(C)C)c(=O)[nH]1 [UM0142656:01, GSK503] | 4.717 |
| CN(C)S(=O)(=O)c1ccc2c(c1)/C(=C/c1cc3c([nH]1)CCCC3)C(=O)N2 [UM0142659:01, SU6656] | 52.64 |
| CN1CCN(c2ccc(C(=O)Nc3n[nH]c4ccc(Cc5cc(F)cc(F)c5)cc34)c(NC3CCOCC3)c2)CC1 [UM0142673:01, Entrectinib] | 20.65 |
| O=C(O)C(=O)c1cn(Cc2ccccc2)c2ccc(-c3ccc(OC(F)(F)F)cc3)cc12 [UM0142688:01, Tiplaxtinin(PAI-039)] | 36.69 |
| Nc1ccc(/C=C/C(=O)NCc2cc3cc(-c4ccc(C(=O)N5CCC(F)(F)CC5)cc4)cc(-c4ccc(F)cc4)c3o2)cn1 [UM0142694:01, KPT-9274] | 5.106 |
| CNCC(O)c1ccc(O)cc1 (centres unmarked) [UM0142702:01, Synephrine] | 1.654 |
| O=C(Cc1ccccc1)Nc1nnc(CCSCCc2nnc(NC(=O)Cc3ccccc3)s2)s1 [UM0142712:01, BPTES] | 8.754 |
| COC(=O)c1ccc([C@@H]2c3[nH]c4ccccc4c3C[C@@H](C(=O)OC)N2C(=O)CCl)cc1 [UM0142735:01, RSL3] | 22.95 |
| Cc1c(Cl)cccc1S(=O)(=O)Nc1nc(CC(=O)N2CCN(C)CC2)cs1 [UM0142740:01, BVT 2733] | 1.989 |
| Cc1cn(CCN2CCN(c3ccccc3-c3cc(C#N)cc(C(=O)NCCCN4CCCC4)c3)CC2)c2ccccc12 [UM0142746:01, LLY507] | 10.14 |
| COc1cc(OCc2cccc(-c3ccccc3)c2C)cc(OC)c1CN1CCCC[C@H]1C(=O)O [UM0142755:01, PD-1/PD-L1 inhibitor 1] | 7.667 |
| O=C(Nc1cnn2ccc(N3CCC[C@@H]3c3cc(F)ccc3F)nc12)N1CC[C@H](O)C1 [UM0142757:01, LOXO-101] | 0.6062 |
| Cc1ccc2nc(CN(CCN(Cc3nc4ccc(C)cc4[nH]3)Cc3nc4ccc(C)cc4[nH]3)Cc3nc4ccc(C)cc4[nH]3)[nH]c2c1 [UM0142762:01, NSC348884] | 3.32 |
| N=C(N)NN [UM0142771:01, Aminoguanidine hydrochloride] | 0.824 |
| CC(C)SC(=N)N [UM0142772:01, S-Isopropylisothiourea hydrobromide] | 0.4324 |
| CS(=O)(=O)Nc1ccc([N+](=O)[O-])cc1OC1CCCCC1 [UM0142773:01, NS 398] | 50.11 |
| COc1ccc(CCCOC(Cn2ccnc2)c2ccc(OC)cc2)cc1 (centres unmarked) [UM0142776:01, SKF 96365 hydrochloride] | 35.58 |
| O=C1OC2(c3ccccc31)c1ccc(O)c(O)c1Oc1c2ccc(O)c1O [UM0142786:01, Gallein] | 24.58 |
| N[C@@H]1C[C@H]1c1ccccc1 [UM0142789:01, Tranylcypromine hydrochloride] | -0.9566 |
| O=C(O)[C@@]1(CCCCCCOc2ccc(Cl)cc2)CO1 [UM0142794:01, (R)-(+)-Etomoxir sodium salt] | 1.565 |
| COc1ccc(N(C)c2nc(C)nc3ccccc23)cc1 [UM0142800:01, MPC 6827 hydrochloride] | 22.54 |
| CCc1c(-c2ccccc2)c(-c2ccccc2)nn1-c1ccccc1-c1cccc(OCC(=O)O)c1 [UM0142801:01, BMS 309403] | 85.65 |
| Cc1ccc(C(=O)OCc2ccc([C@@H](CN)C(=O)Nc3ccc4cnccc4c3)cc2)c(C)c1 [UM0142804:01, Netarsudil (AR-13324)] | 32.51 |
| O=C(O)C(O)C(O)C(=O)O (centres unmarked) [UM0142810:01, Sodium tartrate] | 0.7692 |
| c1c[nH]cn1 [UM0142811:01, Imidazole] | 0.004759 |

Other lines, results leading:

| Inh (PKA) [%] | SMILES |
| --- | --- |
| 4.603 | C=CC(=O)Nc1cc(Nc2nccc(-c3c[nH]c4ccccc34)n2)c(OC)cc1N(C)CCN(C)C [UM0142657:01, AZ5104] |
| 10.71 | Nc1nc(NC2CC2)cc(-c2cccc(Cl)c2Cl)n1 [UM0142662:01, TH588] |
| 10.62 | Cc1cn(-c2cc(NC(=O)c3ccc(C)c(Nc4nccc(-c5cnccn5)n4)c3)cc(C(F)(F)F)c2)cn1 [UM0142663:01, Radotinib(IY-5511)] |
| 9.555 | CNc1cc(-c2cccc(Cl)c2Cl)nc(N)n1 [UM0142665:01, TH287] |
| 6.579 | FC(F)(F)Oc1ccc(-c2ccc3nnc(C(F)(F)F)n3c2)cc1 [UM0142666:01, GS967] |
| 4.605 | CNC(=O)c1c(C)oc2cc(Oc3ncnc4cc(OC)c(OC)cc34)ccc12 [UM0142676:01, Fruquintinib(HMPL-013)] |
| 7.912 | Cc1ccc2nc(N)[nH]c(=O)c2c1Sc1ccncc1 [UM0142685:01, Nolatrexed (AG-337)] |
| 17.86 | CC#CC(=O)Nc1ccc2ncnc(Nc3cccc(Br)c3)c2c1 [UM0142687:01, CL-387785 (EKI-785)] |
| 54.87 | N#CC(c1ccnc(NCCc2cccnc2)n1)c1nc2ccccc2s1 (centres unmarked) [UM0142696:01, AS601245] |
| 7.884 | COc1cc2ncnc(Nc3cccc(Cl)c3F)c2cc1OC(=O)N1CCN(C)C[C@H]1C [UM0142700:01, AZD3759] |
| 2.166 | CC(=O)c1cc2c(o1)C(=O)c1ccccc1C2=O [UM0142718:01, Napabucasin] |
| 15.96 | Cc1ccc(Nc2ncc3c(n2)N(C)C(=O)N(c2cc(NC(=O)c4cccc(C(F)(F)F)c4)ccc2C)C3)cn1 [UM0142721:01, GNF-7] |
| 8.033 | CC(C)Oc1ccc(-c2nc(-c3cccc4c3CC[C@@H]4NCCO)no2)cc1C#N [UM0142722:01, Ozanimod (RPC1063)] |
| 9.797 | O=C(NCC(=O)N1CCCC1)Nc1ccc2cnccc2c1 [UM0142726:01, SGC707] |
| 3.261 | O=C(Nc1cc(Cl)cc2c1[nH]c1cnccc12)c1cccnc1 [UM0142732:01, PS-1145] |
| 35.49 | CCOC(=O)COc1ccc(/C=C2\SC(=S)NC2=O)cc1OC [UM0142743:01, IMR-1] |
| 13.99 | COc1ccc(/C=C(\C#N)c2cccnc2)cc1OC [UM0142745:01, RG 13022] |
| -15.82 | Nc1nccc2c1ncn2[C@@H]1O[C@H](CO)[C@@H](O)[C@H]1O [UM0142748:01, 3-Deazaadenosine] |
| 17.17 | Nc1ncc(-c2ccnc(Nc3ccncc3)n2)c(CC2CC2)n1 [UM0142752:01, PIK-III] |
| 22 | CN1CCc2cc(Nc3ncc(C4CC4)c(NCCCNC(=O)C4CCC4)n3)ccc2C1 [UM0142756:01, MRT68921] |

| Inh (PKA) [%] | SMILES |
| --- | --- |
| -0.1491 | CC(C)(C)C(=O)Oc1ccc(S(=O)(=O)Nc2ccccc2C(=O)NCC(=O)O)cc1 [UM0142761:01, Sivelestat (ONO-5046)] |
| 0.4975 | COc1cc(-c2cn(C)c(=O)c3cnccc23)cc(OC)c1CN(C)C [UM0142765:01, BI-7273] |
| 9.037 | CCCOc1ccc(CCc2nc3cc(-c4c(C)noc4C)ccc3n2CCN2CCOCC2)cc1 [UM0142766:01, PF-CBP1] |
| 3.478 | CCCOc1ccccc1-c1nc2[nH]nnc2c(=O)[nH]1 [UM0142774:01, Zaprinast] |
| -0.314 | CC1=Nc2ccc(Cl)cc2S(=O)(=O)N1 [UM0142775:01, Diazoxide] |
| -1.118 | CC(N)=NCc1cccc(CN)c1 [UM0142778:01, 1400W dihydrochloride] |
| 0.9875 | CN(C)CCCC1(c2ccc(F)cc2)OCc2cc(C#N)ccc21 (centres unmarked) [UM0142779:01, Citalopram hydrobromide] |
| -2.134 | Nc1ncnc2c1ncn2C1CCCO1 (centres unmarked) [UM0142780:01, SQ 22536] |
| 58.85 | C[C@H](NC(=O)c1sccc1OCc1ccc(Cl)cc1)c1ccccc1 [UM0142788:01, AS 1949490] |
| -1.723 | COc1ccc(C[C@H](N)C(=O)N[C@H]2[C@@H](O)[C@H](n3cnc4c(N(C)C)ncnc43)O[C@@H]2CO)cc1 [UM0142790:01, Puromycin dihydrochloride] |
| 2.149 | C=CCNc1ncnc2ccc(Br)cc12 [UM0142792:01, SMER 28] |
| 3.916 | CC(C)(C)c1ccc(S(=O)(=O)NCc2ccc(C(=O)Nc3cccnc3)cc2)cc1 [UM0142793:01, STF 31] |
| 27.6 | COc1nccnc1NS(=O)(=O)c1ccc(NC(=O)/C=C/c2ccc([N+](=O)[O-])s2)cc1 [UM0142796:01, Necrosulfonamide] |
| 0.7014 | COc1cc2c(NC3CCN(C(C)C)CC3)nc(N3CCC(F)(F)CC3)nc2cc1OCCCN1CCCC1 [UM0142799:01, UNC 0642] |
| 7.673 | Nc1nccc(Oc2ccc3c(C(=O)Nc4cccc(C(F)(F)F)c4)cccc3c2)n1 [UM0142802:01, BAW2881 (NVP-BAW2881)] |
| 3.742 | C[C@@H]1CC(=O)Nc2cccc(-c3ccc4c(c3)c(-c3cnn(C)c3)nn4C)c2N1 [UM0142803:01, CPI-637] |
| 30.97 | Oc1cc(CNC(=S)/C=C/c2cc(O)c(O)c(Br)c2)cc(O)c1O [UM0142805:01, NT157] |
| 7.723 | COc1ccc(Cn2c3ncnc4c(ncn4Cc4ccc(OC)cc4)c-3nc2=O)cc1 [UM0142806:01, RK-33] |
| -0.519 | CN(C)CCCOc1ccc(-c2ccc3ncc4c(c3c2)n(C2CCOCC2)c(=O)n4C)cn1 [UM0142808:01, AZD0156] |
